One series concerns hen osteoclasts. The series is described as follows: Bone resorption by hen osteoclast cultures with rat bone particles pre-labelled with tritiated proline. Type of series: cell-based. The conditions noted are these: for inhibition at 10 µg/mL / inhibition at 25 µg/mL: Osteoclast, read-out: Inhibition % vs. controls. The protocol:
The activity of the new xanthones has been evaluated in vitro and in vivo. The effect on the bone resorption has been studied in vitro according to Zambonin-Zallone et al. Anatomy Embriology, 165, 405, 1982). The medullary bone, deriving from tibia and femur of hens fed with hypocalcic diet for 7 days was washed with MEM buffer, modified according to Joklik, at 4°C and filtered through a nylon filter with pore diameters of 112 microns. The obtained cell suspension was centrifuged at 1800 rpm for 5 minutes. The surnatant was discarded and the pellet treated with a 0.2% NaCl solution for 30 seconds to eliminate most of the present red blood cells. After restoration of the physiological osmolarity by means of 1.6% NaCl, the sample was centrifuged at 1800 rpm for 5 min. The obtained pellet, suspended again in the culture medium, was layered on 75% foetal calf serum in Joklik MEM for 45 min, so as to obtain a cell suspension enriched in osteoclasts. The fibroblasts were then filtered off by means of two filtrations on 112 µn nylon filters.
The so obtained cells were cultivated in a nucleotide-free medium, in the presence of 3 µg/ml of cytosine-1-D-β-arabinofuranoside to block the mitosis of proliferating cells. The culture medium contained 100 µg/ml streptomycin, 100 U.I./ml penicillin and 10% fetal calf serum. The cultures were incubated in humid atmosphere saturated with 5% CO₂ at 37°C and washed after 24 and 48 hours to remove non-adhering medullary cells.
The bone resorption was evaluated using the so prepared osteoclasts cultures cultured in the presence of rat bone particles, pre-labelled in vivo with trititated proline. During the resorption process, the collagen was degraded into fragments containing tritiated proline which was released in the culture medium; the resorption was calculated by measuring the radioactivity present in the medium after 24 and 48 hours of treatment.
Simultaneously to each experiment, cell-free samples have also been prepared containing only bone fragments labelled in the culture medium to measure the aspecific release of radioactivity from the bone. This value was subtracted as background from the corresponding experimental value.
The compounds under examination were added to the culture medium at the concentrations of 10 and 25 µg/ml dissolved in DMSO. The inhibiting effect on the bone resorption of osteoclast of compound I (R = iPr, R₁ = OiPr), as an example, is reported on Table 1.
The significance was evaluated by the Student's t test versus the group treated with the solvent alone (control).

Series [1] has as its system suckling rats under hypocalcic diet. The series is described as follows: Antiosteoporotic activity in suckling rats under hypocalcic diet (femur compacta thickness by microradiography). The note with it: 250 mg/kg/os. Type of series: in vivo, Wistar rats. The protocol: In vivo, the antiosteoporotic activity of the compound I (R = iPr, R₁ = OiPr) administered by the oral route, was evaluated on suckling rats under hypocalcic diet according to the method, slightly modified, disclosed by Lozupone et al., Bone, 9; 215, 1988). Female Wistar rats were allowed to delivery spontaneously.
The offsprings were pooled, weighed and re-distributed so as to obtain nests similar in weight and number.
The mothers during the suckling period were fed with an hypocalcic diet (Altromin DP 1031) and divided in two groups.
One group was treated orally with compound I (R = iPr, R₁ = OiPr) suspended in Methocel 0.5% at the dose of 250 mg/kg, whereas the second was treated with the vehicle alone (control group). The animals were sacrificed after 10 days from the start of milking.
The femur was taken from each animal and fixed, included in methacrylate and transversally cut. Two sections taken at the distal methaphysis and one from the medial methaphysis were microradiographed so as to measure the thickness of the compacta.

Series [2] in a line: Acute toxicity in the rat after oral and intraperitoneal administration. The note with it: in vivo, 14 days observation, read-out: LD₅₀. More on the design: species or system Sprague-Dawley rats. The method, then:
The acute toxicity of the compound I (R = iPr; R₁ = OiPr) was evaluated in the rat after oral and intraperitoneal administration.
Sprague-Dawley rats of both sexes (5M + 5F) were used for each group. […] The compound has an LD₅₀ > 4000 mg/kg (LD₀) after oral administration and an LD₅₀ > 1000 mg/kg (LD₂₀) by intraperitoneal route.

Setting [3] is: change versus control group (Methocel 0.5%).
Setting [4] is: change versus control group (Methocel 0.5%); R₁ = OiPr).
The mark [5] stands for this setting: femur, sacrificed after 10 days, n = 3, p < 0.05.

Like-named read-outs stand apart in the source and are kept apart here. Where only a bound is given, the exact number is not on record here.

As usually defined, the inhibition is the percentage by which the read-out fell short of the control. As for `CC(C)Oc1ccc2c(=O)c3ccc(OC(C)C)cc3oc2c1` [I (R=iPr; R₁=OiPr), 3,6-Di(isopropoxy)xanthone], the “Bone Res.” value in the series on hen osteoclasts (Conc. 10 µg/ml, 24h, n = 4) came out at 32.1 ± 3.6 µg; with hen osteoclasts (Conc. 10 µg/ml, 48h, n = 4), 50.2 ± 6.3 µg; in the series with hen osteoclasts (Conc. 25 µg/ml, 24h, n = 4, p < 0.01), 16.0 ± 1.0 µg; in the series on hen osteoclasts (Conc. 25 µg/ml, 48h, n = 4, p < 0.01), 21.0 ± 1.0 µg. Besides, the inhibition at 10 µg/mL amounted to 27.5% in the series on hen osteoclasts (Conc. 10 µg/ml, 24h) and 30.9% in the series on hen osteoclasts (Conc. 10 µg/ml, 48h). Further, the inhibition at 25 µg/mL in the series on hen osteoclasts (Conc. 25 µg/ml, 24h) is 63.8%; in the series with hen osteoclasts (Conc. 25 µg/ml, 48h) it was 71.1%. The “activity on bone resorption” value in the series on hen osteoclasts (at the concentrations of 10 and 25 µg/ml) is reported as “dose dependent activity”. For the same compound, in the series with hen osteoclasts (both at 24 and at 48 hours, concentration not stated in the sentence (10 and 25 µg/ml tested)), the “bone resorption inhibition in comparison to unexposed controls” value is recorded as “higher than 60%”. For the same compound, the “Compacta thinkness Diaphysis %” value is reported as “+29%” in series [1] (setting [3]) and 29% in series [1] (setting [4]). For the same compound, the figures for the “Compacta thinkness Methaphysis %” value in series [1] (setting [3]) and in series [1] (setting [4]) were “+29%” and 29%, respectively. Moreover, in series [1] (setting [5]), the “Compacta thinkness Diaphysis mm ± S.D.” value is 0.71±0.03 mm. In addition, the “Compacta thinkness Methaphysis mm ± S.D.” value in series [1] (setting [5]) is given as 0.40±0.12 mm. Besides, the LD50 at 336 h was more than 1000 mg/kg in series [2] (ip, intraperitoneal route, printed with (LD₂₀)) and more than 4000 mg/kg in series [2] (oral administration, printed with (LD₀)).

The record behind these values is patent EP0586960B1, “Xanthone derivatives, their preparation and use” (INVERNI DELLA BEFFA S.P.A., priority 1992, dated 1994).
